This note sets out measurements from patent publication US7300946B2, “N-(substituted arylmethyl)-4-(disubstituted methyl) piperidines and pyridines” (Bayer CropScience AG, priority 2002, dated 2007).

In this assay the test system is tobacco budworm (Heliothis virescens [Fabricius]). Description: surface-treated diet test against the tobacco budworm. Format: in vivo. Particulars: tobacco budworm second instar larvae, 0.25 millimoles of candidate insecticide on the surface of the diet, five-day exposure; for Percent Mortality: compared to total number of insects infested; for Percent Growth Inhibition: inhibition of insect weight relative to untreated controls. In outline:
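Wheat germ artificial diet surface-treated with 40 µL of 50 mM DMSO stock diluted 1:7 in 1:1 water/acetone (0.25 millimolar on diet), or sub-multiples for rate tests. One second-instar larva per well, 25° C, 60% RH, 5 days; percent weight inhibition vs DMSO controls and percent mortality.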

With `O=C(Nc1ccc(C(F)(F)F)cc1)OC(c1ccc(Cl)c(Cl)c1)C1CCN(Cc2ccc(Oc3ncccn3)cc2)CC1` (stereo not shown) [Compound 725], the “Percent Mortality” value is on record as 100% and the “Percent Growth Inhibition” value was found to be 100%.
For the molecule `[O-][N+]1(Cc2ccc(Oc3ncccn3)cc2)CCC(=C(c2ccc(C(F)(F)F)cc2)c2cc(Cl)cc(Cl)c2)CC1` (stereo not shown) [Compound 856], the “Percent Mortality” value stood at 50% and the “Percent Growth Inhibition” value is on record as 100%.
`O=C(Nc1cc(F)cc(F)c1)OC(c1cc(Cl)cc(Cl)c1)C1CCN(Cc2ccc(Oc3ncccn3)cc2)CC1` (stereo not shown) [Compound 728]: the “Percent Mortality” value is recorded as 100% and the “Percent Growth Inhibition” value is 100%.
`Fc1cc(C(=C2CCN(Cc3ccc(Oc4ncccn4)cc3)CC2)c2ccc(C(F)(F)F)cc2)ccc1Cl` [Compound 821]: the “Percent Mortality” value is reported as 100% and the “Percent Growth Inhibition” value stood at 100%.
Regarding `CCCOc1ccc(CN2CCC(C(OC(=O)Nc3ccc(F)cc3)c3cccc(C(F)(F)F)c3)CC2)cc1` (stereo not shown) [Compound 486], for the setting “surface-treated diet”, the “Percent Mortality” value stood at 100% and the “Percent Growth Inhibition” value was 100%.
Turning to `O=C(Nc1ccc(Cl)cc1)OC(c1ccc(C(F)(F)F)cc1)C1CCN(Cc2ccc(Oc3ccccc3)cc2)CC1` (stereo not shown) [Compound 545], under “surface-treated diet”, the “Percent Mortality” value was determined as 100% and the “Percent Growth Inhibition” value is reported as 100%.
Take `O=C(Nc1ccc(Cl)cc1)OC(c1ccc(C(F)(F)F)cc1)C1CC[N+]([O-])(Cc2ccc(-c3ccccc3)cc2)CC1` (stereo not shown) [Compound 747]: the “Percent Mortality” value is recorded as 100% and the “Percent Growth Inhibition” value came to 100%.
In the case of `CCn1nnc(-c2ccc(CN3CCC(C(OC(=O)Nc4ccc(Cl)cc4)c4ccc(C)cc4)CC3)cc2)n1` (stereo not shown) [Compound 595], under “surface-treated diet”, the “Percent Mortality” value was 100% and the “Percent Growth Inhibition” value is 100%.
`CCCOc1ccc(CN2CCC(=C(c3ccc(OC(F)(F)F)cc3)c3ccc(OC(F)(F)F)cc3)CC2)cc1` [Compound 48]: for the setting “surface-treated diet”, the “Percent Mortality” value is recorded as 100% and the “Percent Growth Inhibition” value is on record as 100%.
For the molecule `Cn1nnc(-c2ccc(CN3CCC(C(NC(=O)Nc4ccc(OC(F)(F)F)cc4)c4ccc(OC(F)(F)F)cc4)CC3)cc2)n1` (stereo not shown) [Compound 345], where the note is “surface-treated diet”, the “Percent Mortality” value came to 100% and the “Percent Growth Inhibition” value is 100%.
Take `O=C(Nc1ccc(F)cc1)OC(c1ccc(C(F)(F)F)cc1)C1CCN(Cc2ccc(-c3csnn3)cc2)CC1` (stereo not shown) [Compound 559]: where the note is “surface-treated diet”, the “Percent Mortality” value was found to be 17% and the “Percent Growth Inhibition” value was 97%.
